Laboratory results as given in PubChem BioAssay (NCI).
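Following 48 hours of exposure in 96-well plates, responses at five concentrations were used to interpolate endpoints linearly. GI50 is the concentration that inhibits growth by half. TGI denotes the concentration required for complete inhibition of growth.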

Assays:
Assay in all cases: growth of human tumour cells (NCI), 48 h
[1] = system: U251 CNS
[2] = system: RPMI-8226 leukemia
[3] = system: MDA-MB-231 breast
[4] = system: 786-0 renal
[5] = system: SF-295 CNS
[6] = system: SK-MEL-5 melanoma
[7] = system: MOLT-4 leukemia
[8] = system: LOX IMVI melanoma
[9] = system: SR leukemia
[10] = system: MALME-3M melanoma
[11] = system: HL-60(TB) leukemia
[12] = system: SNB-19 CNS
[13] = system: BT-549 breast
[14] = system: M14 melanoma
[15] = system: CAKI-1 renal
[16] = system: OVCAR-5 ovarian
[17] = system: OVCAR-3 ovarian
[18] = system: NCI-H522 lung
[19] = system: HCT-15 colon
[20] = system: HOP-92 NSCLC
[21] = system: SF-268 CNS
[22] = system: MDA-MB-435
[23] = system: KM12 colon
[24] = system: CCRF-CEM leukemia
[25] = system: SK-OV-3 ovarian
[26] = system: NCI-H460 lung
[27] = system: RXF 393 renal
[28] = system: ACHN renal
[29] = system: COLO 205 colon
[30] = system: A498 renal
[31] = system: SK-MEL-28 melanoma
[32] = system: HCT-116 colon
[33] = system: T-47D breast
[34] = system: SW-620 colon
[35] = system: EKVX NSCLC
[36] = system: NCI-H23 lung
[37] = system: HCC-2998 colon
[38] = system: NCI/ADR-RES ovarian
[39] = system: OVCAR-4 ovarian
[40] = system: HT29 colon
[41] = system: SNB-75 CNS
[42] = system: DU-145 prostate
[43] = system: UACC-257 melanoma
[44] = system: SK-MEL-2 melanoma
[45] = system: TK-10 renal
[46] = system: A549 NSCLC
[47] = system: SF-539 CNS
[48] = system: UACC-62 melanoma
[49] = system: SN12C renal
[50] = system: IGROV1 ovarian
[51] = system: K-562 leukemia
[52] = system: HS 578T breast
[53] = system: UO-31 renal
[54] = system: PC-3 prostate
[55] = system: HOP-62 NSCLC
[56] = system: MCF7 breast
[57] = system: OVCAR-8 ovarian

**Q.** `COc1cc2c(c(Br)c1N)-c1cc(Br)c(N)cc1C2=O` was tested. Which GI50 [1] did it give?
**A.** 4.58 µM

**Q.** And the TGI [1]?
**A.** > 100 µM

**Q.** And the GI50 [2]?
**A.** > 100 µM

**Q.** And the TGI [2]?
**A.** > 100 µM

**Q.** What about the GI50 [3] of the same compound?
**A.** 3.07 µM

**Q.** And the TGI [3]?
**A.** > 81 µM

**Q.** What about the GI50 [4] of the same compound?
**A.** > 100 µM

**Q.** What about the TGI [4] of the same compound?
**A.** > 100 µM

**Q.** And the GI50 [5]?
**A.** > 100 µM

**Q.** What about the TGI [5] of the same compound?
**A.** > 100 µM

**Q.** What about the GI50 [6] of the same compound?
**A.** 5.39 µM

**Q.** What about the TGI [6] of the same compound?
**A.** > 100 µM

**Q.** And the GI50 [7]?
**A.** > 100 µM

**Q.** What about the TGI [7] of the same compound?
**A.** > 100 µM

**Q.** And the GI50 [8]?
**A.** > 100 µM

**Q.** And the TGI [8]?
**A.** > 100 µM

**Q.** And the GI50 [9]?
**A.** 0.0592 µM

**Q.** And the TGI [9]?
**A.** > 100 µM

**Q.** What about the GI50 [10] of the same compound?
**A.** > 100 µM

**Q.** And the TGI [10]?
**A.** > 100 µM

**Q.** What about the GI50 [11] of the same compound?
**A.** > 100 µM

**Q.** What about the TGI [11] of the same compound?
**A.** > 100 µM

**Q.** What about the GI50 [12] of the same compound?
**A.** > 100 µM

**Q.** What about the TGI [12] of the same compound?
**A.** > 100 µM

**Q.** And the GI50 [13]?
**A.** > 24.8 µM

**Q.** What about the TGI [13] of the same compound?
**A.** > 100 µM

**Q.** And the GI50 [14]?
**A.** 50.9 µM

**Q.** What about the TGI [14] of the same compound?
**A.** > 100 µM

**Q.** What about the GI50 [15] of the same compound?
**A.** > 100 µM

**Q.** And the TGI [15]?
**A.** > 100 µM

**Q.** And the GI50 [16]?
**A.** 0.0894 µM

**Q.** And the TGI [16]?
**A.** > 100 µM

**Q.** What about the GI50 [17] of the same compound?
**A.** > 100 µM

**Q.** And the TGI [17]?
**A.** > 100 µM

**Q.** And the GI50 [18]?
**A.** 9.15 µM

**Q.** What about the TGI [18] of the same compound?
**A.** 59.6 µM

**Q.** What about the GI50 [19] of the same compound?
**A.** > 100 µM

**Q.** And the TGI [19]?
**A.** > 100 µM

**Q.** What about the GI50 [20] of the same compound?
**A.** 2.98 µM

**Q.** And the TGI [20]?
**A.** > 100 µM

**Q.** And the GI50 [21]?
**A.** 7.37 µM

**Q.** And the TGI [21]?
**A.** > 100 µM

**Q.** And the GI50 [22]?
**A.** > 100 µM

**Q.** What about the TGI [22] of the same compound?
**A.** > 100 µM

**Q.** And the GI50 [23]?
**A.** > 85.1 µM

**Q.** And the TGI [23]?
**A.** > 100 µM

**Q.** And the GI50 [24]?
**A.** > 100 µM

**Q.** What about the TGI [24] of the same compound?
**A.** > 100 µM

**Q.** And the GI50 [25]?
**A.** 11.3 µM

**Q.** What about the TGI [25] of the same compound?
**A.** > 73.5 µM

**Q.** What about the GI50 [26] of the same compound?
**A.** 3.21 µM

**Q.** And the TGI [26]?
**A.** > 100 µM

**Q.** And the GI50 [27]?
**A.** > 100 µM

**Q.** And the TGI [27]?
**A.** > 100 µM

**Q.** What about the GI50 [28] of the same compound?
**A.** > 100 µM

**Q.** What about the TGI [28] of the same compound?
**A.** > 100 µM

**Q.** And the GI50 [29]?
**A.** > 87 µM

**Q.** What about the TGI [29] of the same compound?
**A.** > 100 µM

**Q.** And the GI50 [30]?
**A.** > 61.7 µM

**Q.** And the TGI [30]?
**A.** > 100 µM

**Q.** What about the GI50 [31] of the same compound?
**A.** > 100 µM

**Q.** And the TGI [31]?
**A.** > 100 µM

**Q.** What about the GI50 [32] of the same compound?
**A.** 3.49 µM

**Q.** What about the TGI [32] of the same compound?
**A.** > 100 µM

**Q.** And the GI50 [33]?
**A.** 0.307 µM

**Q.** What about the TGI [33] of the same compound?
**A.** > 100 µM

**Q.** What about the GI50 [34] of the same compound?
**A.** > 100 µM

**Q.** What about the TGI [34] of the same compound?
**A.** > 100 µM

**Q.** And the GI50 [35]?
**A.** 9.99 µM

**Q.** And the TGI [35]?
**A.** > 100 µM

**Q.** And the GI50 [36]?
**A.** 4.3 µM

**Q.** And the TGI [36]?
**A.** > 100 µM

**Q.** What about the GI50 [37] of the same compound?
**A.** 4.97 µM

**Q.** What about the TGI [37] of the same compound?
**A.** > 100 µM

**Q.** What about the GI50 [38] of the same compound?
**A.** 5.31 µM

**Q.** What about the TGI [38] of the same compound?
**A.** > 100 µM

**Q.** And the GI50 [39]?
**A.** 1.77 µM

**Q.** And the TGI [39]?
**A.** > 100 µM

**Q.** What about the GI50 [40] of the same compound?
**A.** > 100 µM

**Q.** And the TGI [40]?
**A.** > 100 µM

**Q.** What about the GI50 [41] of the same compound?
**A.** 1.96 µM

**Q.** And the TGI [41]?
**A.** > 100 µM

**Q.** And the GI50 [42]?
**A.** 59.8 µM

**Q.** And the TGI [42]?
**A.** > 100 µM

**Q.** What about the GI50 [43] of the same compound?
**A.** > 100 µM

**Q.** What about the TGI [43] of the same compound?
**A.** > 100 µM

**Q.** What about the GI50 [44] of the same compound?
**A.** > 100 µM

**Q.** And the TGI [44]?
**A.** > 100 µM

**Q.** What about the GI50 [45] of the same compound?
**A.** 0.354 µM

**Q.** What about the TGI [45] of the same compound?
**A.** > 100 µM

**Q.** And the GI50 [46]?
**A.** > 89.9 µM

**Q.** What about the TGI [46] of the same compound?
**A.** > 100 µM

**Q.** What about the GI50 [47] of the same compound?
**A.** 4.93 µM

**Q.** What about the TGI [47] of the same compound?
**A.** > 100 µM

**Q.** What about the GI50 [48] of the same compound?
**A.** > 100 µM

**Q.** And the TGI [48]?
**A.** > 100 µM

**Q.** And the GI50 [49]?
**A.** 6.33 µM

**Q.** And the TGI [49]?
**A.** > 100 µM

**Q.** And the GI50 [50]?
**A.** 0.205 µM

**Q.** What about the TGI [50] of the same compound?
**A.** > 100 µM

**Q.** And the GI50 [51]?
**A.** > 100 µM

**Q.** And the TGI [51]?
**A.** > 100 µM

**Q.** And the GI50 [52]?
**A.** 3.02 µM

**Q.** What about the TGI [52] of the same compound?
**A.** > 100 µM

**Q.** And the GI50 [53]?
**A.** > 100 µM

**Q.** And the TGI [53]?
**A.** > 100 µM

**Q.** And the GI50 [54]?
**A.** > 100 µM

**Q.** And the TGI [54]?
**A.** > 100 µM

**Q.** And the GI50 [55]?
**A.** 10.1 µM

**Q.** And the TGI [55]?
**A.** > 100 µM

**Q.** What about the GI50 [56] of the same compound?
**A.** 0.131 µM

**Q.** And the TGI [56]?
**A.** > 100 µM

**Q.** What about the GI50 [57] of the same compound?
**A.** 4.9 µM

**Q.** What about the TGI [57] of the same compound?
**A.** > 100 µM
